The supplement of paper PMC10307832

Columns and labels:
Experiment in all cases: relative viability (nuclei count vs DMSO), 5 days (fraction); higher = more cells survive
[1] = compound: CCc1c2c(nc3ccc(OC(=O)N4CCC(N5CCCCC5)CC4)cc13)-c1cc3c(c(=O)n1C2)COC(=O)[C@]3(O)CC [Irinotecan] + Cc1cc(Nc2cc(N3CCN(C)CC3)nc(Sc3ccc(NC(=O)C4CC4)cc3)n2)n[nH]1 [Tozasertib] (partner 0.1 µM)
In short: (§1)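 Lung cancer cell lines in 1536-well plates got either a single drug or a fixed anchor-drug dose together with five library-drug doses (not always all listed) in √10 steps, by pin tool, on the day after seeding. Nuclei were counted after 5 days, and relative viability is the treated-to-vehicle ratio of nuclei counts. Values are medians of duplicate plates.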

[2] = compound: CC[C@@H](C)CNCC(=O)N1CCC2=C([C@@H]1COC3=CC=CC(=C3)C)C=CS2 [RU-SKI 43] + COc1cccc2cc(-c3nc([C@H]4CC[C@H](C(=O)O)CC4)n4ncnc(N)c34)[nH]c12 [OSI-027] (partner 0.5 µM)
In short: as §1

[3] = compound: Cn1cc(-c2cnc3ccc4ccc(CS(=O)(=O)NCc5ccccn5)cc4c(=O)c3c2)cn1 [MK-8033] + O=C(CCCCCCC(=O)Nc1ccccc1)NO [Vorinostat] (partner 1 µM)
In short: as §1

[4] = compound: Cn1cc(-c2cnc3ccc4ccc(CS(=O)(=O)NCc5ccccn5)cc4c(=O)c3c2)cn1 [MK-8033] + C[C@@H](Oc1cc(-c2cnn(C3CCNCC3)c2)cnc1N)c1c(Cl)ccc(F)c1Cl [Crizotinib] (partner 1 µM)
In short: as §1

Row | Cell Line | relative viability ([1]; first compound 0.6325 µM) | relative viability ([1]; first compound 2 µM) | relative viability ([1]; first compound 6.325 µM) | relative viability ([1]; first compound 20 µM) | relative viability ([2]; first compound 0.1 µM) | relative viability ([2]; first compound 0.3162 µM) | relative viability ([2]; first compound 1 µM) | relative viability ([2]; first compound 3.162 µM) | relative viability ([2]; first compound 10 µM) | relative viability ([3]; first compound 0.02 µM) | relative viability ([3]; first compound 0.06325 µM) | relative viability ([3]; first compound 0.2 µM) | relative viability ([3]; first compound 0.6325 µM) | relative viability ([3]; first compound 2 µM) | relative viability ([4]; first compound 0.02 µM) | relative viability ([4]; first compound 0.06325 µM) | relative viability ([4]; first compound 0.2 µM) | relative viability ([4]; first compound 0.6325 µM) | relative viability ([4]; first compound 2 µM)
1 | NCI-H522 | 0.506 | 0.502 | 0.526 | 0.486 | 0.823 | 0.726 | 0.71 | 0.708 | 0.716 | 0.796 | 0.741 | 0.829 | 0.895 | 0.942 | – | – | – | – | –
2 | NCI-H358 | 0.104 | 0.141 | 0.145 | 0.128 | 0.597 | 0.642 | 0.975 | 0.865 | 0.564 | 0.79 | 0.503 | 0.579 | 0.712 | 0.614 | 0.493 | 0.503 | 0.595 | 0.434 | 0.508
3 | NCI-H1755 | 0.469 | 0.463 | 0.316 | 0.405 | 0.757 | 0.825 | 0.781 | 0.841 | 0.699 | 0.748 | 0.791 | 0.75 | 0.678 | 0.766 | 0.811 | 0.782 | 0.878 | 0.847 | 0.803
4 | LCLC-103H | 0.431 | 0.425 | 0.301 | 0.32 | 0.512 | 0.576 | 0.567 | 0.486 | 0.56 | 0.767 | 0.719 | 0.753 | 0.704 | 0.807 | 1.02 | 0.926 | 0.99 | 1.06 | 1.04
5 | HOP-62 | 0.234 | 0.328 | 0.249 | 0.215 | 0.912 | 1.02 | 1.1 | 0.915 | 0.928 | 0.549 | 0.617 | 0.61 | 0.717 | 0.588 | 0.857 | 0.899 | 0.808 | 0.894 | 0.878
6 | HCC-78 | 0.411 | 0.356 | 0.21 | 0.0831 | 0.392 | 0.392 | 0.406 | 0.386 | 0.419 | 0.401 | 0.399 | 0.539 | 0.262 | 0.455 | 0.336 | 0.316 | 0.344 | – | 0.32
7 | NCI-H650 | 0.703 | 0.553 | 0.202 | 0.181 | 0.496 | 0.467 | 0.643 | 0.494 | 0.565 | 0.512 | 0.5 | 0.496 | 0.428 | 0.371 | 0.648 | 0.753 | 1 | 0.778 | 0.712
8 | NCI-H1563 | – | – | – | – | 0.772 | 0.778 | 0.819 | 0.75 | 0.786 | – | – | – | – | – | 0.918 | 0.813 | 0.773 | 0.93 | 0.812
9 | ABC-1 | – | 0.236 | 0.211 | 0.114 | 0.541 | 0.385 | 0.554 | 0.52 | 0.473 | 1.24 | 0.931 | 0.928 | 1.04 | 0.975 | 1.06 | 1.14 | 1.06 | 0.996 | 1.04
10 | Calu-6 | – | – | – | – | – | – | – | – | – | – | – | – | – | – | 0.831 | 0.77 | 0.704 | 0.828 | 0.695
11 | EBC-1 | – | – | – | – | – | – | – | – | – | – | – | – | – | – | 0.158 | 0.16 | 0.193 | 0.193 | 0.188
12 | NCI-H520 | 0.446 | 0.514 | 0.445 | 0.427 | 0.301 | 0.303 | 0.287 | 0.251 | 0.349 | 0.636 | 0.689 | 0.777 | 0.705 | 0.657 | 0.797 | 0.678 | 0.663 | 0.59 | 0.78
13 | NCI-H322M | 0.461 | 0.511 | 0.411 | 0.202 | 0.548 | 0.511 | 0.581 | 0.576 | 0.575 | 1.04 | 0.774 | 0.829 | 0.966 | 0.888 | 0.855 | 0.778 | 0.835 | 0.939 | 0.954
14 | 201T | – | 0.682 | 0.402 | 0.318 | 0.834 | 0.709 | 1.06 | 0.69 | 0.458 | 0.956 | 0.926 | 0.791 | 0.949 | 0.962 | 1.07 | 0.991 | 1.03 | 0.874 | 1.03
15 | RERF-LC-KJ | 0.444 | 0.438 | 0.358 | 0.179 | 0.505 | 0.514 | 0.603 | 0.56 | 0.548 | 0.726 | 0.599 | 0.664 | 0.707 | 0.597 | 0.867 | 0.849 | 0.769 | 0.825 | 0.79
16 | A549 | – | – | – | – | – | – | – | – | – | – | – | – | – | – | 0.719 | 0.713 | 0.703 | 0.848 | 0.677
17 | NCI-H1648 | 0.39 | 0.346 | 0.402 | 0.291 | – | – | 0.255 | 0.251 | 0.221 | 0.591 | – | 0.3 | 0.718 | 0.629 | – | – | – | – | –
18 | NCI-H1623 | 0.343 | 0.34 | 0.227 | 0.227 | 0.435 | 0.421 | 0.428 | 0.443 | 0.448 | – | – | – | – | – | – | – | – | – | –
19 | NCI-H1651 | 0.532 | 0.575 | 0.255 | 0.183 | 0.838 | 0.768 | 0.878 | 0.764 | 0.846 | 0.665 | 0.484 | 0.593 | 0.597 | 0.633 | 0.852 | 0.832 | 0.846 | 0.938 | 0.862
20 | NCI-H2405 | – | 0.605 | 0.354 | 0.246 | 0.618 | 0.56 | 0.615 | 0.684 | 0.569 | 1.1 | 0.988 | 0.9 | 1.06 | 1.04 | 0.809 | 0.783 | 0.842 | 0.871 | 0.811
21 | NCI-H727 | 0.524 | 0.551 | 0.47 | 0.507 | 0.553 | 0.642 | 0.559 | 0.565 | 0.455 | 1.2 | 0.981 | 1.11 | 1.16 | 1.13 | 0.811 | 0.677 | 0.754 | 0.886 | 0.792
